Test results reported in ChEMBL document CHEMBL1221165, “Actin is the primary cellular receptor of bistramide A” (Nat Chem Biol, 2005).
Active and inactive are the calls of the source. No cut-off for these calls is given here.

Assays:
RBL-2H3 [1] = assay: Induction of GFP-PKCdelta translocation from cytoplasm to plasma membrane in RBL2H3 cells at 200 nM over 30 mins by fluorescent imaging; type: functional, cell-based; settings: Rattus norvegicus
RBL-2H3 [2] = assay: Induction of GFP-PKCdelta translocation from cytoplasm to nuclear in RBL2H3 cells at 200 nM over 30 mins by fluorescent imaging; type: functional, cell-based; settings: Rattus norvegicus
PC-3 [3] = assay: Cell cycle arrest in human PC3 cells assessed as accumulation at G2/M phase at 1 uM after 48 hrs (Rbv = 19%); type: functional
PC-3 [4] = assay: Cytotoxicity against human PC3 cells assessed as cell viability after 48 hrs; type: functional, cell-based; settings: PC-3, 48 h
A549 [5] = assay: Cytotoxicity against human A549 cells assessed as cell viability after 48 hrs; type: functional, cell-based; settings: A549, 48 h
[6] = Depolymerization of Mg2+ filamentous actin in human A549 cells at 450 nM by using FITC-phallodin staining; type: cell-based
CA46 [7] = assay: Antiproliferative activity against human CA46 cells assessed as mitotic cells at 1 uM after 48 hrs by visual examination (Rbv = 3%); type: functional
HL-60 [8] = assay: Cell cycle arrest in human HL60 cells assessed as accumulation at G1 phase at 0.5 uM after 48 hrs (Rbv = 38%); type: functional
[9] = biological target: T1, Protein kinase C delta type (Homo sapiens, UniProt Q05655); assay: Displacement of [3H]PDBu from human recombinant PKCdelta by competitive binding assay
Target sequence in this assay (Q05655 whole entry): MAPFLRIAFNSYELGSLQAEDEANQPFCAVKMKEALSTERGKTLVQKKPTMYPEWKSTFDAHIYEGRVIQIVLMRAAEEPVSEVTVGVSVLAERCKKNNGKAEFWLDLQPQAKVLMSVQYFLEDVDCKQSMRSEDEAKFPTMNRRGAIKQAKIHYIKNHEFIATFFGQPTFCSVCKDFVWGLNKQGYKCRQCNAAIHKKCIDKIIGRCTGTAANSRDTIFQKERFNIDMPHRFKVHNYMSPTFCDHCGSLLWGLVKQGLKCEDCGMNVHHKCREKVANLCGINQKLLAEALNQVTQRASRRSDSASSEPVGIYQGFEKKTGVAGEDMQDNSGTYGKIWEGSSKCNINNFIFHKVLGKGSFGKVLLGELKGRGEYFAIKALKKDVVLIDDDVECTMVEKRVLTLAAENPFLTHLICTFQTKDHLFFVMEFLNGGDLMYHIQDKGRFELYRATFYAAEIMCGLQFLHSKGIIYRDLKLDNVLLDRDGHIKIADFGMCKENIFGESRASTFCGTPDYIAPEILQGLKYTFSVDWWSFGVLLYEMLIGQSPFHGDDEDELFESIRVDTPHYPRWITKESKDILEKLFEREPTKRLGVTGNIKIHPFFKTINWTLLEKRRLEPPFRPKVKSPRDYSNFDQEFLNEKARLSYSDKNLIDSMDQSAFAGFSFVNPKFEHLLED

CA46 [10] = assay: Cell cycle arrest in human CA46 cells assessed as accumulation at G0/G1 phase at 1 uM after 48 hrs; type: functional, cell-based
PC-3 [11] = assay: Cell cycle arrest in human PC3 cells assessed as accumulation at G1 phase at 1 uM after 48 hrs (Rbv = 58%); type: functional
[12] = biological target: T1, Protein kinase C delta type; assay: Induction of human recombinant PKCdelta assessed as phosphorylation of amphiphilic peptide substrate at 0.1 uM in presence of 10 uM phosphatidylserine relative to control
Target sequence in this assay (Q05655 whole entry, looked up): as the sequence (Q05655 whole entry) above

A549 [13] = assay: Dissolution of filamentous actin in human A549 cells after 1 hr by using FITC-phallodin staining by fluorescent microscopy; type: cell-based
Oryctolagus cuniculus = species: Oryctolagus cuniculus; assay: (§1) Binding affinity to rabbit skeletal muscle monomeric actin by isothermal calorimetric method; type: tissue-based; settings: Muscle tissue
CA46 [14] = assay: Cell cycle arrest in human CA46 cells assessed as accumulation at G2/M phase at 1 uM after 48 hrs; type: functional, cell-based
HL-60 [15] = assay: Cell cycle arrest in human HL60 cells assessed as accumulation at G2/M phase at 0.5 uM after 48 hrs (Rbv = 11%); type: functional
HCT-116 [16] = assay: Cytotoxicity against human HCT116 cells assessed as cell viability after 48 hrs; type: functional, cell-based; settings: HCT-116, 48 h
[17] = Binding affinity to rabbit skeletal muscle globular actin by isothermal calorimetric method; type: tissue-based, Oryctolagus cuniculus, Muscle tissue
[18] = biological target: Protein kinase C delta type (Rattus norvegicus) (UniProt P09215); assay: Induction of rat recombinant PKCdelta activity
Protein kinase C delta type (Rattus norvegicus), sequence (P09215 whole entry): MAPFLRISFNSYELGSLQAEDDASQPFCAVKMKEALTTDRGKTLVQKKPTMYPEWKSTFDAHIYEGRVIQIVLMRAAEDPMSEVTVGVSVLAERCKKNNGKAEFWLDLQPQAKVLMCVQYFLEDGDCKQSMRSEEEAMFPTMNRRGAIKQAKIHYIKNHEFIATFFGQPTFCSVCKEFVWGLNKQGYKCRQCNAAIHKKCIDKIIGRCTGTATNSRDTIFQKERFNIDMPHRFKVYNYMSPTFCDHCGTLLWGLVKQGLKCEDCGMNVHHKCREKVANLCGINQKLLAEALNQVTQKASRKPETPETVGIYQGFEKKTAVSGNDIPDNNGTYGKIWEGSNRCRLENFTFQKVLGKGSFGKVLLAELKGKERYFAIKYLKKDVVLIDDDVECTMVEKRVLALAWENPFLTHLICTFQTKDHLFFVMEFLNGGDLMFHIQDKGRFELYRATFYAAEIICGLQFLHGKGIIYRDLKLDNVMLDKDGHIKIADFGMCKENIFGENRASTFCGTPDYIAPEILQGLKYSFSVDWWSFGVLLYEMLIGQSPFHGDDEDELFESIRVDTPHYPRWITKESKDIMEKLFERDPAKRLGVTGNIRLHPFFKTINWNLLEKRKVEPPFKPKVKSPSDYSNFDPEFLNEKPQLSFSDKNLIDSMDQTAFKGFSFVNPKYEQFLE

CA46 [19] = assay: Antiproliferative activity against human CA46 cells assessed as binucleated cells at 1 uM after 48 hrs by visual examination (Rbv = 6%); type: functional
HL-60 [20] = assay: Cell cycle arrest in human HL60 cells assessed as accumulation at S phase at 0.5 uM after 48 hrs (Rbv = 44%); type: functional
PtK2 = assay: Dissolution of filamentous actin in […] PtK2 cells at 20 nM within 15 mins by using FITC-phallodin staining by fluorescent microscopy; type: cell-based
PC-3 [21] = assay: Cytotoxicity against human PC3 cells assessed as growth inhibition after 48 hrs; type: functional; settings: PC-3, 48 h
PC-3 [22] = assay: Cell cycle arrest in human PC3 cells assessed as accumulation at S phase at 1 uM after 48 hrs (Rbv = 18%); type: functional
MCF7 [23] = assay: Cell cycle arrest in human MCF7 cells assessed as accumulation at G0/G1 phase at 1 uM after 48 hrs (Rbv = 74%); type: functional
HL-60 [24] = assay: Cytotoxicity against human HL60 cells assessed as growth inhibition after 48 hrs; type: functional; settings: HL-60, 48 h
A549 [25] = assay: Dissolution of filamentous actin in human A549 cells at 50 to 150 nM by using FITC-phallodin staining by fluorescent microscopy; type: cell-based; settings: TDE = time-dependent effect
[26] = biological target: T1, Protein kinase C delta type; assay: Induction of human recombinant PKCdelta assessed as phosphorylation of amphiphilic peptide substrate at 1 uM in presence of 10 uM phosphatidylserine relative to control
Target sequence in this assay (Q05655 whole entry, looked up): as the sequence (Q05655 whole entry) above

MCF7 [27] = assay: Cell cycle arrest in human MCF7 cells assessed as accumulation at S phase at 1 uM after 48 hrs (Rbv = 18%); type: functional
PC-3 [28] = assay: Dissolution of filamentous actin in human PC3 cells at 20 nM within 15 mins by using FITC-phallodin staining by fluorescent microscopy; type: functional, cell-based
CHO-K1 = assay: Dissolution of filamentous actin in chinese hamster CHOK1 cells at 20 nM within 15 mins by using FITC-phallodin staining by fluorescent microscopy; type: cell-based; settings: Cricetulus griseus
HCT-116 [29] = assay: Cytotoxicity against human HCT116 cells assessed as growth inhibition after 48 hrs; type: functional; settings: HCT-116, 48 h
MCF7 [30] = assay: Cell cycle arrest in human MCF7 cells assessed as accumulation at G1 phase at 1 uM after 48 hrs (Rbv = 73%); type: functional
[31] = Depolymerization of Ca2+ filamentous actin in human A549 cells at 450 nM by using FITC-phallodin staining; type: cell-based
MCF7 [32] = assay: Cell cycle arrest in human MCF7 cells assessed as accumulation at G2/M phase at 1 uM after 48 hrs (Rbv = 7%); type: functional
A549 [33] = assay: Increase in dissolution of filamentous actin in human A549 cells at 120 to 450 nM by using FITC-phallodin staining by fluorescent microscopy; type: cell-based
HL-60 [34] = assay: Cytotoxicity against human HL60 cells assessed as cell viability after 48 hrs; type: functional, cell-based; settings: HL-60, 48 h
A549 [35] = assay: Cytotoxicity against human A549 cells assessed as growth inhibition after 48 hrs; type: functional; settings: A549, 48 h
RBL-2H3 [36] = assay: Induction of GFP-PKCdelta translocation from cytoplasm to nuclear in RBL2H3 cells at 5 uM over 30 mins by fluorescent imaging; type: functional, cell-based; settings: Rattus norvegicus
A549 [37] = assay: Inhibition of globular actin polymerization at steady state in human A549 cells assessed as change in fluorescence intensity; type: cell-based
[38] = as §1; type: tissue-based, Oryctolagus cuniculus, Muscle tissue
[39] = Inhibition of actin polymerization

CCC/C=C/C=C/C(=O)O[C@H]1/C(=C/C(=O)OC)C[C@H]2C[C@H]([C@@H](C)O)OC(=O)C[C@H](O)C[C@@H]3C[C@H](OC(C)=O)C(C)(C)[C@](O)(C[C@@H]4C/C(=C/C(=O)OC)C[C@H](/C=C/C(C)(C)[C@]1(O)O2)O4)O3
Activity (RBL-2H3 [1]): Active
Activity (RBL-2H3 [2]): Active

C/C=C/C(=O)C[C@H]1CC[C@H](C)[C@H](CC(=O)NC[C@H](O)[C@H](C)C(=O)NCCC[C@H]2O[C@@]3(CCC[C@H](CC[C@H](C)/C=C(\C)[C@H](C)O)O3)CC[C@@H]2C)O1 [BISTRAMIDE A]
Activity (PC-3 [3]): 43%
IC50 (PC-3 [4]): 107 nM
IC50 (A549 [5]): 63 nM
Activity [6]: Active
Activity (CA46 [7]): 4%
Activity (HL-60 [8]): 18%
Ki [9]: 27000 nM
Activity (CA46 [10]): Active
Activity (PC-3 [11]): 37%
fold change (FC) [12]: 4.5
Activity (A549 [13]): Dose-dependent effect
Ka (Oryctolagus cuniculus): 1.46 ×10⁸ /M
Activity (CA46 [14]): Active
Activity (HL-60 [15]): 27%
IC50 (HCT-116 [16]): 437 nM
Kd [17]: 7 nM
Activity [18]: inactive
Activity (CA46 [19]): 48%
Activity (HL-60 [20]): 48%
Activity (PtK2): Active
GI50 (PC-3 [21]): 5 nM
Activity (PC-3 [22]): 14%
Activity (MCF7 [23]): 33%
GI50 (HL-60 [24]): 200 nM
Activity (A549 [25]): tde
fold change (FC) [26]: 3.8
Activity (MCF7 [27]): 24%
Activity (PC-3 [28]): Active
Activity (CHO-K1): Active
GI50 (HCT-116 [29]): 200 nM
Activity (MCF7 [30]): 33%
Activity [31]: Active
Activity (MCF7 [32]): 38%
Activity (A549 [33]): Active
IC50 (HL-60 [34]): > 1000 nM
GI50 (A549 [35]): 13 nM
Activity (RBL-2H3 [36]): inactive
inhibition (A549 [37]): Dose-dependent effect

C/C1=C/C(=O)O[C@@H]2C[C@@H](CC[C@H](C)/C=C\C=C\CC1)O[C@@](O)([C@@H]1CSC(=O)N1)C2 [LATRUNCULIN A]
Kd [38]: 170 nM
Kd [39]: 200 nM
